Source: PMC9167041 (Computational and Structural Biotechnology Journal, 2022)

Target: SARS-CoV-2 M^pro (Severe acute respiratory syndrome coronavirus 2, UniProt P0DTD1)
Assay: SARS-CoV-2 Mpro in vitro enzyme-based assay
Assay type: biochemical
Conditions: compound at 10 μM

## C=C1CCC2[C@](C)(COC(C)=O)[C@H](OC(C)=O)CC[C@@]2(C)[C@@H]1C[C@H](SC(=S)N1CCN(C(=O)C2COc3ccccc3O2)CC1)C1=CCOC1=O (stereo partly shown) [3j]
  inhibition of SARS-CoV-2 M^pro: rather low inhibitory effect
